Values joined by “and” are separate entries in the source; they are usually repeats but may differ in a detail not shown here. Equal entries are not always repeated. One block for each molecule: values may come before it.
Assays:
[1] = stability of CV-8972 in aqueous solution at different concentrations and pH; assay type: physicochemical
Method: The stability of CV-8972 was analyzed. Aqueous samples containing CV-8972 at different concentrations and pH were incubated for various periods and analyzed.
Form A of CV-8972 was analyzed for stability in aqueous solution. Aqueous samples containing CV-8972 at different concentrations and pH were incubated for various periods and analyzed.

[2] = recrystallization to monohydrate of CV-8972, water content by KF; assay type: physicochemical; conditions: recrystallized monohydrate of CV-8972, MeOH:MEK with water; theoretical 3.32%
Text: The product was converted to the desired polymorph by recrystallization. The percentage of water and the ratio of methanol:methyl ethyl ketone (MEK) were varied in different batches using 2.5 g of product.
In batch MBA 25, 5% water w/r/t total volume of solvent (23 volumes) containing 30% methano1:70% MEK was used for precipitation. The yield was 67% of monohydrate of CV-8972.
In batch MBA 26, 1.33% water w/r/t total volume of solvent (30 volumes) containing 20% methano1:80% MEK was used for precipitation. […] Water content was determined by KF to be 4.0%.
In batch MBA 27, 3% water w/r/t total volume of solvent (32 volumes) containing 22% methano1:78% MEK was used for precipitation. The yield was 87.22% of monohydrate of CV-8972.
In other batches, the ratio and total volume of solvent were held constant at 20% methano1:80% MEK and 30 volumes in batches using 2.5 g of product, and only the percentage of water was varied.
In batch MBA 29, 1.0 equivalent of water was added. Material was isolated and dried under vacuum at 40° C. for 24 hours. Water content was determined by KF to be 0.89%, showing that the monohydrate form was not forming stoichiometrically.
In batch MBA 30, 3% water was added. Material was isolated and dried under vacuum at 40° C. for 24 hours.
In batch MBA 31, 5% water was added. Material was isolated and dried under vacuum at 40° C. for 24 hours. Water content was determined by KF to be 3.30%, showing that monohydrate is forming with addition of excess water.

[3] = system: isolated hearts after ischemia-reperfusion; experiment: ischemia-reperfusion (IR), coronary flow; assay type: in vivo, mice; conditions: ratio of flow at 170 minutes to flow at 20 minutes
Method: FIG. 38 is a schematic of the ischemia-reperfusion (IR) method used to analyze the effects of selected compositions on coronary flow, cardiac function, and infarct size. […] At 20 minutes, ischemia was induced, and coronary flow was analyzed. At 50 minutes, reperfusion was initiated to restore blood flow. At 170 minutes, coronary flow and cardiac function was analyzed, and then the hearts were preserved, sectioned, and infarct size was measured by triphenyltetrazolium chloride (TTC) staining. FIG. 39 is a graph of coronary flow of after IR.

[4] = system: isolated hearts after ischemia-reperfusion; experiment: ischemia-reperfusion (IR), cardiac function (LVDP); assay type: in vivo, mice; conditions: group mean
[5] = system: isolated hearts after ischemia-reperfusion; experiment: ischemia-reperfusion (IR), infarct size by TTC staining; assay type: in vivo, mice; conditions: composite image data, mean of the group's hearts
Method: FIG. 38 is a schematic of the ischemia-reperfusion (IR) method used to analyze the effects of selected compositions on coronary flow, cardiac function, and infarct size. […] At 20 minutes, ischemia was induced, and coronary flow was analyzed. At 50 minutes, reperfusion was initiated to restore blood flow. At 170 minutes, coronary flow and cardiac function was analyzed, and then the hearts were preserved, sectioned, and infarct size was measured by triphenyltetrazolium chloride (TTC) staining. […] FIG. 42 is graph of infarct size after IR.

SMILES: COc1ccc(CN2CCN(CCOC(=O)c3cccnc3)CC2)c(OC)c1OC.Cl.Cl.Cl.O [Sample 276-MBA-172]
Retention Time 5.6 (purity of CV-8972) ([1]; 2 mg/mL pH 6, 0 hrs): 98.01 | Retention Time 5.6 (purity of CV-8972) ([1]; 2 mg/mL pH 7, 0 hrs): 97.53 | Retention Time 5.6 (purity of CV-8972) ([1]; 10 mg/mL pH 6, 0 hrs): 95.24 | Retention Time 5.6 (purity of CV-8972) ([1]; 10 mg/mL pH 7, 0 hrs): 92.85

SMILES: COc1ccc(CN2CCN(CCOC(=O)c3cccnc3)CC2)c(OC)c1OC.Cl.Cl.Cl.O [Sample 289-MBA-25]
KF result (% of water) [2]: 3.46%

SMILES: COc1ccc(CN2CCN(CCOC(=O)c3cccnc3)CC2)c(OC)c1OC.Cl.Cl.Cl.O [Sample 289-MBA-26]
KF result (% of water) [2]: 4.00% | KF result (Sample after drying at 40° C. for 24 hours) [2]: 3.75%

SMILES: COc1ccc(CN2CCNCC2)c(OC)c1OC [TMZ, trimetazidine]
CF170/CF20 ([3]; group MEAN): 4.02E+01 ul/ml | CF170/CF20 ([3]; individual heart): 2.42E+01 ul/ml and 5.87E+01 ul/ml and 3.57E+01 ul/ml and 3.37E+01 ul/ml and 5.21E+01 ul/ml and 2.73E+01 ul/ml and 2.60E+01 ul/ml and 6.39E+01 ul/ml | left ventricular developed pressure (LVDP), T20 Mean ([4]; Table 6, at 20 minutes): 55.86 | left ventricular developed pressure (LVDP), T170 Mean ([4]; Table 6, at 170 minutes): 48.91 | IS/LV, Mean [5]: 56%

Next, values leading:

KF result (% of water) [2]: 3.93% | KF result (Sample after drying at 40° C. for 24 hours) [2]: 3.54%
SMILES: COc1ccc(CN2CCN(CCOC(=O)c3cccnc3)CC2)c(OC)c1OC.Cl.Cl.Cl.O [Sample 289-MBA-27]

KF result (Sample after drying at 40° C. for 24 hours) [2]: 0.89%
SMILES: COc1ccc(CN2CCN(CCOC(=O)c3cccnc3)CC2)c(OC)c1OC.Cl.Cl.Cl.O [Sample 289-MBA-29]

KF result (Sample after drying at 40° C. for 24 hours) [2]: 3.51%
SMILES: COc1ccc(CN2CCN(CCOC(=O)c3cccnc3)CC2)c(OC)c1OC.Cl.Cl.Cl.O [Sample 289-MBA-30]

KF result (Sample after drying at 40° C. for 24 hours) [2]: 3.30%
SMILES: COc1ccc(CN2CCN(CCOC(=O)c3cccnc3)CC2)c(OC)c1OC.Cl.Cl.Cl.O [Sample 289-MBA-31]

— patent US20220226313A1, “COMBINATION THERAPIES THAT INCLUDE AN AGENT THAT PROMOTES GLUCOSE OXIDATION AND AN INHIBITOR OF PYRUVATE DEHYDROGENASE KINASE” (IMBRIA PHARMACEUTICALS, INC., priority 2019, published 2022)
